Read-outs that look alike come from different tables or passages of the source.
Experiments:
[1] = target: T1, hCB2 (Homo sapiens, UniProt P34972); test: hCB2 radioligand binding assay ([3H]-CP 55,940 displacement); settings: HEK membranes
Protocol: (§1) cDNA expression clones for human CB 1 (hCB1, Genbank Accession No. AY225225) and human CB2 (hCB2, Genbank Accession No. AY242132) expressed in vector pcDNA3.1+ were purchased from UMR cDNA Resource Center, Rolla, Mo. (Clone ID CNR01L000 for hCB1; CNR0200000 for hCB2).
(§2) Membranes were isolated from transfected cells as follows. Monolayers of cultured cells were washed twice with phosphate-buffered saline (PBS). […] Homogenates were centrifuged 10 minutes at 1000×g at 4° C. The supernatant was collected and was centrifuged for 1 hour at 40,000×g. The supernatant was then decanted and the resulting pellet was re-suspended in 20 mM HEPES, pH 7.4, 5 mM MgCl2, 1 mM EDTA, 10% sucrose with complete cocktail protease inhibitors. Protein concentration of membrane suspensions were measured by Bradford Protein Assay using bovine serum albumin as the standard (BioRad catalog #500-0006). Protein concentrations of membrane suspensions were adjusted with the final buffer in the range of 5 to 10 mg/mL and were stored at −80° C. until further use.
A rapid filtration technique using Millipore FB filter plates (Catalog #MADVNOB) and filtration apparatus (Millipore system Catalog MAVM0960R) with vacuum aspiration was used to harvest and rinse labeled membranes (8 times with 0.2 mL of chilled binding buffer). […] Binding data were analyzed using GraphPad Prism (GraphPad Software, Inc. San Diego, Calif.).

[2] = target: T2, hCB1 (Homo sapiens, UniProt P21554); test: hCB1 radioligand binding assay ([3H]-CP 55,940 displacement); settings: HEK membranes
Excerpt: as §1
Stable, HEK-293-derived cell lines that recombinantly express hCB1 or hCB2 were established. In brief, the clone hCB1 (CNR1L) or hCB2 (CNR2) was transfected into human embryonic kidney cells (HEK-293) using Lipofectamine 2000 (Gibco, Cat#11668-019) according to the manufacturer's protocol. Transfected clones were isolated by single colony purification and clones were screened for receptor expression using a whole cell, ^3H—CP 55,940 radioligand binding assay. HEK-293 stable cells were maintained in Dulbecco's modified Eagles medium (DMEM) containing 10% fetal bovine serum, 2 mM L-glutamine and 0.5 mg/mL G-418.
Membranes were isolated from transfected cells as follows. Monolayers of cultured cells were washed twice with phosphate-buffered saline (PBS). Cells were scraped into 20 mM HEPES, pH 7.4, 10 mM EDTA containing complete cocktail protease inhibitors (Roche, Catalog #11 697 498 001), and were homogenized by an electric-powered mechanical probe homogenizer (Omni GLH; probe G7-195S) for 40 seconds at 7000 rpm. Homogenates were centrifuged 10 minutes at 1000×g at 4° C. The supernatant was collected and was centrifuged for 1 hour at 40,000×g. The supernatant was then decanted and the resulting pellet was re-suspended in 20 mM HEPES, pH 7.4, 5 mM MgCl2, 1 mM EDTA, 10% sucrose with complete cocktail protease inhibitors. Protein concentration of membrane suspensions were measured by Bradford Protein Assay using bovine serum albumin as the standard (BioRad catalog #500-0006). Protein concentrations of membrane suspensions were adjusted with the final buffer in the range of 5 to 10 mg/mL and were stored at −80° C. until further use.
Radioligand binding assays were performed by incubating membranes (2-10 μg protein) prepared from HEK-293 cells expressing recombinant human cannabinoid receptors, CB 1 or CB2, at room temperature with 0.5 nM cannabinoid receptor agonist, [^3H]-CP 55,940 (Perkin Elmer, catalog #NET 1051) in 0.2 mL of binding buffer (50 mM Tris-HCl, pH 7.5, 5 mM MgCl2, 2.5 mM EDTA) and 0.1% fatty acid free bovine serum albumin (Sigma Cat. #A0821) for 90 minutes. A rapid filtration technique using Millipore FB filter plates (Catalog #MADVNOB) and filtration apparatus (Millipore system Catalog MAVM0960R) with vacuum aspiration was used to harvest and rinse labeled membranes (8 times with 0.2 mL of chilled binding buffer). The radioactivity bound to the filters was counted with 0.05 mL of liquid scintillant (UltraGold MV, PerkinElmer catalog #6013159) in a scintillation counter (Perkin Elmer Microbeta instrument). Nonspecific binding was determined in the presence of unlabeled 1 μM CP 55,940 (Sigma Aldrich, catalog #C1112). Binding data were analyzed using GraphPad Prism (GraphPad Software, Inc. San Diego, Calif.).

[3] = target: T2, hCB1; test: hCB1 cAMP agonist assay (HEK-293 cells); assay type: cell-based; settings: for hCB1 EC50 (cAMP ag, nM, HEK (96-well)): cAMP agonist
[4] = target: T1, hCB2; test: hCB2 GTPγS agonist assay (HEK-293 membranes); assay type: biochemical
Protocol: as §1, §2
^35S GTPγS binding assays were performed by incubating recombinant cell membranes prepared above (5 μg) in the presence of scintillation proximity assay beads (SPA beads, Catalog #RPNQ0252 GE Healthcare, Buckinghamshire, England) in GTPγS binding buffer [50 mM HEPES (pH 7.4), 100 mM NaCl, 5 mM MgCl2, 0.001% saponin (Sigma catalog #S4521)] supplemented with 20 uM GDP (Sigma catalog #G7127) in the presence or absence of test compound. The reaction was carried out in 96-well microplates with 0.1 nM [^35S]GTPγS (specific activity=1250 Ci/mmol; Perkin Elmer catalog #NEG030X250UC) in a final volume of 100 μL. After a 90 min room temperature incubation, the reaction was analyzed using a scintillation counter (Perkin Elmer Microbeta instrument). Binding data were analyzed using GraphPad Prism.

[5] = target: T1, hCB2; test: hCB2 cAMP agonist assay (HEK-293 cells); assay type: cell-based
Protocol: as §1
cAMP assays were performed in HEK-293 cells stably expressing human CB 1 or CB2 receptors. […] Cells suspensions were centrifuged and the cells were washed once with PBS, were centrifuged again, and the cells were resuspended in HBSS (Hank's Balanced Salt Solution, Cellgro, Cat #21-022-CV) solution containing 10 mM HEPES and 0.1% fatty acid free BSA (Sigma, Cat #A0281). Cell suspensions were prepared at 1,500,000 cells per mL. Stock solutions of test substances (10 mM) in DMSO were diluted to 1 mM using 30% DMSO as diluent. Test substances of solutions (1 mM) were further diluted down to 3× of final assay concentrations in the above HBSS buffer containing 0.1% BSA in the presence of 90 uM forskolin (Sigma Cat#F6886). To perform the assay, 20 μL of cell suspension (1,500,000 cells/mL) were added to each well in 96 well plate and treated with 10 μL test substance solution diluted as described above. Cells and compounds were incubated at 37° C. for 30 minutes. Cells were lysed and cAMP concentration was measured using DiscoveRx-XS+ cAMP assay kit (DiscoveRx Corporation Ltd., Fremont, Calif., USA, Cat #90-0075-03), following the manufacturer's protocol. GraphPad Prism software was used to calculate EC50 values using sigmoidal dose response curve fitting. The maximal amount of cAMP produced by forskolin was defined as 100%.

[6] = cAMP agonist, HEK, 96-well, read-out: hCB2 EC50 (cAMP ag, nM, HEK (96-well))
[7] = read-out: hCB2 IC50 (CP displ, nM, HEK)
[8] = read-out: hCB1 IC50 (CP displ, nM, HEK)

T2 sequence (P21554 whole entry): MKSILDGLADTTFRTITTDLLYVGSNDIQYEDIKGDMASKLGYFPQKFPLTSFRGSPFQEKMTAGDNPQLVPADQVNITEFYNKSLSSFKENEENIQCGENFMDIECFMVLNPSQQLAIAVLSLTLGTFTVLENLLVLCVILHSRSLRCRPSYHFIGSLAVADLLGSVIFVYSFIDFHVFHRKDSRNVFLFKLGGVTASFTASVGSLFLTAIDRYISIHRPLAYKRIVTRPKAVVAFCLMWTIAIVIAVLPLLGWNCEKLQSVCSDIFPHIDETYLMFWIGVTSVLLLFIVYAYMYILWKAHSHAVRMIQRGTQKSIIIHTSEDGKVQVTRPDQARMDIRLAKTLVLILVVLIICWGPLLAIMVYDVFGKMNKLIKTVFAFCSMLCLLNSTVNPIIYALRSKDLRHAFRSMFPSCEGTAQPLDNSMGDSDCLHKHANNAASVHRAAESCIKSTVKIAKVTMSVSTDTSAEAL
T1 sequence (P34972 whole entry): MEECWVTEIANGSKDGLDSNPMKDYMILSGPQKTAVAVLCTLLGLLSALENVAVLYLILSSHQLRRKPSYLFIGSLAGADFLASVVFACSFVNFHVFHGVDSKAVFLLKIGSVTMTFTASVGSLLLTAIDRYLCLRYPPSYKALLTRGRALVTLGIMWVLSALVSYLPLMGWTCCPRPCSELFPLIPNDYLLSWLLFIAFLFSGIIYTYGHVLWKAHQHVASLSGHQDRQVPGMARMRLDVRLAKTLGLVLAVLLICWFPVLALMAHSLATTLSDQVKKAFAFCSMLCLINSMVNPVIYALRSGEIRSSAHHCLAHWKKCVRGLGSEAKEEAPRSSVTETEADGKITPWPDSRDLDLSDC

SMILES | IC50 ([1]; hCB2 IC50 (CP displ, nM, HEK)) | IC50 ([2]; hCB1 IC50 (CP displ, nM, HEK)) | hCB1 EC50 (cAMP ag, nM, HEK (96-well)) [3] | EC50 [4] | EC50 [5] | EC50 [5, 6] | EC50 [3] | EC50 ([4]; GTPγS agonist, HEK membranes, read-out: hCB2 EC50 (GTPyS ag, nM, HEK)) | IC50 [1, 7] | IC50 [2, 8]
CCCn1c(C)c(C(=O)c2cc3scnc3[nH]2)c2ccccc21 [Compound I-30] | 1000 to 10000 nM | > 10000 nM | NS (“Not Significant,” which means less than 30% agonist activity when compared to the positive control) |  |  |  |  |  |  | 
CCCn1c(C(=O)c2c(C)n(CCC)c3sccc23)cc2ccccc21 [Compound I-14] | 100 to 1000 nM | 100 to 1000 nM | NS (“Not Significant,” which means less than 30% agonist activity when compared to the positive control) | 100 to 1000 nM | 100 to 1000 nM |  |  |  |  | 
CCCn1c(C(=O)c2c(C)[nH]c3ccccc23)cc2ccsc21 [Compound I-51] | 100 to 1000 nM | > 10000 nM | NS (“Not Significant,” which means less than 30% agonist activity when compared to the positive control) |  |  | 100 to 1000 nM |  |  |  | 
CCCn1c(C)c(C(=O)c2cc3ccsc3n2CC)c2cccc(OC)c21 [Compound I-36] | < 100 nM | 100 to 1000 nM |  | < 100 nM | < 100 nM |  | 100 to 1000 nM |  |  | 
CCCn1cc(C(=O)c2cc3ccsc3n2CC)c2cnccc21 [Compound I-22] | 100 to 1000 nM | 1000 to 10000 nM | NS (“Not Significant,” which means less than 30% agonist activity when compared to the positive control) | 100 to 1000 nM | < 100 nM |  |  |  |  | 
CCCn1c(C(=O)c2c(C)n(C)c3ccccc23)cc2ccsc21 [Compound I-53] | 100 to 1000 nM | > 10000 nM | NS (“Not Significant,” which means less than 30% agonist activity when compared to the positive control) |  |  | 100 to 1000 nM |  | 100 to 1000 nM |  | 
CCn1c(C(=O)c2c[nH]c3cnccc23)cc2ccsc21 [Compound I-40] |  |  | NS (“Not Significant,” which means less than 30% agonist activity when compared to the positive control) |  |  |  |  |  | > 10000 nM | > 10000 nM
CCCn1c(C)c(C(=O)c2cc3ccsc3[nH]2)c2ccccc21 [Compound I-74] | 100 to 1000 nM | 1000 to 10000 nM | NS (“Not Significant,” which means less than 30% agonist activity when compared to the positive control) | 100 to 1000 nM | 100 to 1000 nM |  |  |  |  | 
CCCn1c(C(=O)c2c[nH]c3ccncc23)cc2ccsc21 [Compound I-44] |  |  | NS (“Not Significant,” which means less than 30% agonist activity when compared to the positive control) |  |  |  |  |  | > 10000 nM | > 10000 nM

— patent publication US20130178453A1, “Cannabinoid Agonists” (priority 2010, published 2013)
